From publication PMC3795025, “A Target-Disease Network Model of Second-Generation BCR-ABL Inhibitor Action in Ph+ ALL” (PLoS ONE, 2013) come the findings set out here.

This test has as its target LYN (Homo sapiens, UniProt P07948). Nature of the test: chemical proteomics pulldown from cell lysate (c-bafetinib beads, competition with […] free drug). Type of test: cell-based.

Chain of LYN (P07948 2-512): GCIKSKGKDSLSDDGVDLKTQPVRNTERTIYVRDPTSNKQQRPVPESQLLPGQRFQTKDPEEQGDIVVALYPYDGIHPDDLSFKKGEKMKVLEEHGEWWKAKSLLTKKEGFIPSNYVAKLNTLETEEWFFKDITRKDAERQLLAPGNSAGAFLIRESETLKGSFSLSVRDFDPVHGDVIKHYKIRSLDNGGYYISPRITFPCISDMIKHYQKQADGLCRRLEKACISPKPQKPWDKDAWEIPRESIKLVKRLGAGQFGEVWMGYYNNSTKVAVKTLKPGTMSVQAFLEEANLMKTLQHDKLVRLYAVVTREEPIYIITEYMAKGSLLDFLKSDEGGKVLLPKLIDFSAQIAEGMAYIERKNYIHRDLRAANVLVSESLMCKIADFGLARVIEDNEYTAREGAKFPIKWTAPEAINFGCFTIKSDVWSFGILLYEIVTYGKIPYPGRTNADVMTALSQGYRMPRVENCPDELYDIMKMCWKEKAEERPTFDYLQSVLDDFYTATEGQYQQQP

As for `Cc1ccc(NC(=O)c2ccc(CN3CC[C@H](N(C)C)C3)c(C(F)(F)F)c2)cc1Nc1nccc(-c2cncnc2)n1` [bafetinib], the “chemical proteomics pulldown from cell lysate (c-bafetinib beads, competition wi)” value was “LYN and BTK have been identified with all four TKI in the present chemical proteomics screen”.
